In patent US6451861B1, “Reduction of gastro-intestinal bacterial load” (priority 1999, dated 2002):

Columns and labels:
[1] = test system: E. coli strains AW574 or AW405; assay: Lysis of E. coli by terpenes (galactosidase activity, ONPG, 420 nm)
Description: Lysis of the cell membrane was monitored by the determination of galactosidase activity. […] This enzyme is inducible in the presence of isopropyl-1-thiogalactosidase (IPTG) and assayed colorimetricaly with substrate o-nitro-phenyl-B-D-galactoside (ONPG). ONPG is cleaved to release o-nitrophenol with peak absorvance at 420 nm. Since intact E. coli is impermeable to both ONPG and the enzyme, the cells have to be lysed prior to enzymatic assay. Therefore the ability of terpenes to lyse E. coli can be measured with this enzymatic assay and compared to known lysing agents. The procedure used was as follows: E. coli strains AW574 or AW405 were cultured overnight in 10 ml tryptone broth with 1 nM IPTG at 35° C. Cells were allowed to growth after an absorbance equal to 0.9 was reached. Cells were harvested, washed with phosphate buffer and resuspended to an absorbance equal to 0.5. One tenth of a ml of the bacteria culture was added to 0.9 ml of buffer, warmed to 30° C. and then 80 ul of terpenes (85% terpenes and 15% polysorbate-80), 80 ul water (background) or 40 ul chloroform plus 40 ul 1% SDS in water (positive control) were added. After the addition of the lysing agents the tubes were mixed for 10 seconds and 0.2 ml of ONPG (4 mg/ml water) was added, then incubated for 5 minutes. The enzyme activity was stopped with 0.5 ml of 1 M sodium carbonate. After being centrifuged for 3 minutes at 1,500×g, supernatant was transferred to cuvettes and read at 420 nm. The relative degree of lysis caused by terpenes was calculated as follows:
100×(OD terpenes−OD water)/(OD chloroform−OD water)

[2] = test system: E. coli; conditions: cited from earlier work

CC(C)=CCC/C(C)=C/CO [Geraniol]
Relative lysis % ([1]; Geraniol 3.63 uM, relative to SDS + chloroform = 100%): 2.4% | Relative lysis % ([1]; Geraniol 363 uM, relative to SDS + chloroform = 100%): 34% | Relative lysis % ([1]; Geraniol 3,630 uM, relative to SDS + chloroform = 100%): 98% | Relative lysis % ([1]; Geraniol 36,300 uM, relative to SDS + chloroform = 100%): 96%

CC(C)=CCCC(C)=CC=O [citral]
citral concentration in media that reduced the concentration of E. coli [2]: more than 0.01% | citral concentration with bactericidal effect ([2]; in media): 0.08%

Polysorbate-80 [reference compound]
Relative lysis % ([1]; 80 ul Polysorbate-80 alone): 3.2%
